Measured values as given in patent US7214495B2, “Screening method” (Takeda Pharmaceutical Company Limited, priority 2002, dated 2007).

Tests used:
human-derived GPR40 = target: T1, human-derived GPR40 (Homo sapiens, UniProt O14842); assay: Intracellular calcium change (FLIPR) in CHO-K1 cells transiently expressing GPR40; format: cell-based; settings: added in 10^−5 M to 10^−6 M; no response in vector-only control cells
T1 construct: The DNA fragment encoding human GPR40 was acquired by the following PCR procedures; expressed in transfected cells; host or cells: CHO-K1 (transient, Lipofectamine)
Procedure: The CHO-K1 cell line was cultured in HAM F-12 medium (Invitrogen) containing 10% fetal calf serum (Invitrogen), unless otherwise indicated. One day before transfection, 4.5×10^5 cells per 10 cm^2 were plated, followed by incubation in a CO2 incubator adjusted to a concentration of 5% CO2 at 37° C. for at least 15 hours. Using Lipofectamine reagent (Invitrogen), transfection procedures were carried out by modifications of the method attached to the reagent. When a 6-well plate was used for the incubator, the following procedures were performed. First, 2 tubes each having a 1.5 ml volume were prepared and 100 μl each of Opti-MEM-I medium (Invitrogen) was dispensed in each tube. Next, 1 μg of the expression vector was charged in one tube and in another tube, 6 μl of Lipofectamine reagent was charged, which were mixed together. The mixture was settled for 20 minutes at room temperature. To the solution, 800 μl of Opti-MEM-I medium was added and the resulting solution mixture for transfection was added to CHO-K1 cells, which had been previously washed with Opti-MEM-I medium. Then, the cells were incubated in a CO2 incubator for 6 hours. After the incubation, the cells were rinsed with PBS (Invitrogen), then scraped using 0.05% trypsin-EDTA solution (Invitrogen) and recovered by centrifugal operation. The cells obtained were counted and diluted to 5×10^4 cells per 200 μl of the medium. The dilution was dispensed onto a Black walled 96-well plate (Costar) in 200 μl each per well, followed by incubation overnight in a CO2 incubator. Various test samples were added to the CHO-K1 cells in which the receptor was transiently expressed by the transfection operation described above, whereby changes in the intracellular calcium ion level were determined using FLIPR (Molecular Device). In order to determine the changes in the intracellular calcium ion level on FLIPR, the cells were pre-treated by the following procedures. First, for the purpose of adding a fluorescent dye Fluo-3 AM (DOJIN) to the cells or washing the cells immediately before the FLIPR assay, an assay buffer was prepared. A solution obtained by adding 20 ml of 1M HEPES (pH 7.4) (DOJIN) to 1000 ml of HBSS (Invitrogen) was prepared (hereinafter HBSS/HEPES solution), to which 10 ml of a solution mixture obtained by dissolving 710 mg of Probenecid (Sigma) in 5 ml of 1N NaOH and further adding 5 ml of HBSS/HEPES solution was added. The resulting solution was used as the assay buffer. Next, 50 μg of Fluo-3AM was dissolved in 21 μl of DMSO (DOJIN) and an equal volume of 20% Pulronic acid (Molecular Probes) was added to and mixed with the solution. The mixture was then added to 10.6 ml of the assay buffer supplemented with 105 μl of fetal calf serum to prepare a fluorescent dye solution. The medium for the transfection-treated CHO-K1 cells was removed. Immediately thereafter, the fluorescent dye solution was dispensed in 100 μl each/well and the cells were incubated in a CO2 incubator for an hour so that the fluorescent dye was taken up into the cells. The cells after the incubation was washed with the assay buffer described above and set on FLIPR. A test sample added to the receptor-expressed CHO-K1 cells was prepared using the assay buffer and set on FLIPR at the same time. After various test samples were added thereto.
Following the pre-treatment above, changes in intracellular calcium level after addition of various test samples were measured on FLIPR.

MIN6 cells = assay: FLIPR intracellular calcium assay using MIN6; format: cell-based, mouse; settings: 10 μM fatty acid
Procedure: Mouse pancreatic β cell line MIN6 incubated in a flask was scraped using PBS containing 2.5 mM EDTA and diluted so as to contain 3×10^5 cells/1 mL of the medium. The dilution was dispensed in a Black welled 96-well plate (Coster) in 100 μL/well, followed by incubation in a CO2 incubator for 2 days. The medium used was 4.5 g/l of glucose-containing Dulbecco's Modified Eagle Medium (DMEM, Invitrogen, Inc.) supplemented with 15% fetal calf serum (ThermoTrace, Inc.), 5.5 μM 2-mercaptethanol (Invitrogen, Inc.), 20 mM HEPES pH 7.3, 100 U/ml penicillin and 100 μg/ml streptomycin. To the thus prepared MIN6 cells, various fatty acids (10 μM) were added and the changes in intracellular calcium level in this case were measured using FLIPR (Molecular Device). The changes in the intracellular calcium ion level on FLIPR were assayed in accordance with the procedures described in EXAMPLE 24.

T1 sequence (O14842 whole entry, the tested form may be a part): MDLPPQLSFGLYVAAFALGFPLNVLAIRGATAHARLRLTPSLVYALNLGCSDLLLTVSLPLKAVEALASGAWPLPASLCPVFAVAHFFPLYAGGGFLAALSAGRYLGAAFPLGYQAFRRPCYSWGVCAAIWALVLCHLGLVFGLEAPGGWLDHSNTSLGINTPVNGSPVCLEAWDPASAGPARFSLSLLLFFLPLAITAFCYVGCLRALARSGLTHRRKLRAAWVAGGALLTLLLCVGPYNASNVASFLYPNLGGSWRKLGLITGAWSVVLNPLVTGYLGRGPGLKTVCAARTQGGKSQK

SMILES | response (increase in intracellular calcium level) of GPR40-expressing CHO-K1 cells (human-derived GPR40) | intracellular Ca^2+ level in MIN6 (MIN6 cells)
CC/C=C\C/C=C\C/C=C\C/C=C\C/C=C\C/C=C\CCC(=O)O [Docosahexaenoic acid (C22:6), 4Z,7Z,10Z,13Z,16Z,19Z-docosahexaenoic acid] | specifically responsive | increased
CCCCC/C=C\C/C=C\C/C=C\C/C=C\CCCC(=O)O [Arachidonic acid (C20:4), Arachidonic acid] | specifically responsive | increased
CCCCCCCC/C=C\CCCCCCCC(=O)O [Oleic acid (C18:1), Oleic acid] | specifically responsive | increased
CCCCC/C=C\C/C=C\C/C=C\CCCCC(=O)O [γ-Linolenic acid (C18:3), γ-Linolenic acid] | – | increased
CCCCC/C=C\C/C=C\CCCCCCCC(=O)O [Linoleic acid (C18:2), Linoleic acid] | specifically responsive | increased
